Data as given in patent US8012995B1, “Pharmaceutically active sulfonamide derivatives” (Merck Serono SA, priority 1999, dated 2011).
pIC50: −log10 of the molar value.

Key:
p38 = p38 (Homo sapiens, UniProt Q16539); test: p38 in vitro kinase assay (SPA, GST-ATF2 substrate); type: biochemical; details: amount necessary to achieve 50% inhibition
Description: (§1) JNK 2 and 3 in vitro assays: JNK3 and/or 2 assays are performed in 96 well MTT plates, by incubation of 0.5 μg of recombinant pre-activated GST-JNK or GST-JNK2 with 1 μg of recombinant, biotinylated GST-c-Jun and 2 μM ^33γ-ATP (2 nCi/μl), in the to presence or absence of sulfonamide inhibitors if formula I and in a reaction volume of 50 μl containing 50 mM Tris-HCl, pH 8.0; 10 mM MgCl2; 1 mM Dithiothreitol, and 100 μM NaVO4. The incubation is performed for 120 min. at R.T and stopped upon addition of 200 μl of a solution containing 250 μg of Streptavidine-coated SPA beads (Amersham, Inc.)^•, 5 mM EDTA, 0.1% Triton X-100 and 50 μM ATP, in phosphate saline buffer. After incubation for 60 minutes at RT, beads are sedimented by centrifugation at 1500×g for 5 minutes, resuspended in 200 μl of PBS containing 5 mM EDTA, 0.1% Triton X-100 and 50 μM ATP and the radioactivity measured in a scintillation β counter, following sedimentation of the beads as described above. By substituting GST-c Jun for biotinylated GST-1ATF2 or myelin basic protein, this assay can be used to measure inhibition of preactivated p38 and ERK MAP Kinases, respectively.
(§2) The values indicated in respect of JNK2 and 3, p38 and ERK2 refer to the IC50 (μM), i.e. the amount necessary to achieve 50% inhibition of said target (e.g. JNK2). From the above table it could be derived that said test compounds according to formula I do have a significant effect both on JNK2 and 3, but virtually no effect onto p38 and ERK2, thus delivering a quite selective inhibitory effect.

[1] = tested on: IL-2 release by PMA+Iono-stimulated Jurkat cells; test: IL-2 release assay (ELISA); type: cell-based; details: Homo sapiens, PMA+Ionomycine-stimulated Jurkat cells, 24 hours, read-out: % Inhibition of IL2 Production @3 uM
Description: Jurkat cells, a human T cell leukemia cell line (American Type Culture Collection # TIB 152) were cultured in RPMI 1640 medium (Gibco, BRL) supplemented with 10% of […] FCS, Glutamine and Penstrep. The cell suspension in the medium is diluted to give 2.10^6 cells/mL. The cells were plated (2.10^5 cells/well) on a 96-well plate containing different concentration of test compound (final concentration of compounds, 10, 3, 1, […], 0.1 μM). This mixture is incubated 30 minutes at 37° C. in a humidified CO2 atmosphere. Cells were then treated with 10 ul PMA+Ionomycine (0.1 μM and 1 μM final concentration) in all wells except negative control. In wells without compounds, 10 μl of RPMI 2% DMSO (=0.1% final) is added. Cells are incubated 24 hours at 37° C. and then the supernatant harvested (freeze at −20° C. if not used the same day) prior to performing IL-2 ELISA test on the supernatant.
IL-2 release into the medium by PMA+Iono-stimulated Jurkat cells, in presence or absence of test compounds is assayed by ELISA. Following the procedure described below
Transfer 100 μl capture antibody diluted in PBS at 5 μg/mL into a 96 well ELISA plate and incubate overnight at room temperature.
Aspirate each well and wash 3 times with Wash buffer. After the last wash, damp the plate.
1. Saturate with 200 μl PBS-10% FCS. Incubate 1 hour at room temperature.
2. Repeat the wash step 2.
• 1. Add 100 μl of sample or standard ([…]) and incubate 2 hours at room temperature. • 2. Wash 3 times. • 3. Add 100 μl of biotinylated anti-human IL-2 at 12.5 ng/mL. Incubate 2 hours at room temperature. • 4. Wash 3 times. • 5. Add 100 μl streptavidin-HRP (Zymed #43-4323) at 1:10′000. Incubate 30 minutes at room temperature. • 6. Wash 3 times • 7. Add 100 μl substrate solution (citric acid/Na2HPO4 (1:1)+H2O2 1:2000+OPD). Incubate 20-30 minutes at room temperature. • 8. Add 50 μl of stop solution to each well. • 9. Determine optical density using a microliter plate reader set to 450 nm with correction at 570 nm.

ERK2 = ERK2 (Homo sapiens, UniProt P28482); test: ERK2 in vitro kinase assay (SPA, myelin basic protein substrate); type: biochemical; details: amount necessary to achieve 50% inhibition
Description: as §1, §2

JNK3 = JNK3 (Homo sapiens, UniProt P53779); test: JNK3 in vitro assay (SPA, GST-c-Jun phosphorylation); type: biochemical; details: amount necessary to achieve 50% inhibition, GST-c-Jun substrate
Description: as §1, §2

Hlr c-Jun HeLa cells = test: C-Jun reporter assay (Dual-Luciferase); type: cell-based; details: Homo sapiens, Hlr c-Jun HeLa cells transfected with pMEKK1
Description: Hlr c-Jun HeLa cells are cultured in DMEM High Glc supplemented with 10% FCS (Sigma), 2 mM Glutamine (Gibco), P/S, Hygromycin b 100 μg/mL and G418 250 μg/mL
The cell suspension are diluted with medium to give about 3.5×10^6 cells/mL and 1 mL of cell suspension are put onto 2 10 cm culture dishes containing 9 mL of culture medium.
• Control: 0.2 μg pTK Renilla, 5.8 μg pBluescript KS, 500 μl OPTIMEM (GIBCO), 18 μl Fugene 6 • Induced: 0.1 μg pMEKK1, 0.2 μg pTK Renilla, 5.7 μg pBluescript KS, 500 μl OPTIMEM (GIBCO), 18 μl Fugene 6 30′ RT
The transfection mixture is added to the plated cells. The plates are incubated over night at 37° C. in a humidified atmosphere of 5% CO2 in air
A 96 wells plate containing 100 μl of culture medium per well is prepared
Negative control (vehicle): 2 μl of DMSO is added to the 100 μl (in triplicate).
Compound: 2 μl of Hit compound stock dilution are added to the 100 μl (in triplicate).
The transfected cells are trypsinised and ressuspend in 12 mL of culture medium.
100 μl of the dilution are added to each of the 96 wells plate.
The plate is incubated over night at 37° C. in a humidified atmosphere of 5% CO2 in air
Dual-Luciferase™ Reporter Assay System (Promega)
The medium is removed from the plate and the cells washed two times with 100 μl PBS Completely remove the rinse solution before applying PLB reagent. Dispense into each culture well […] of 1×PLB. Place the culture plates on a rocking platform or orbital shaker with gentle
rocking/shaking to ensure complete and even coverage of the cell monolayer with 1×PLB. Rock the culture plates at room temperature for 15 minutes. Transfer 20 μl of the lysate into a white opaque 96 wells plate. Read in a luminometer.
• Inject 50 μl of Luciferase Assay Reagent II wait 5″, read 10″ • Inject 50 μl of Stop & Glo® Reagent wait 5″, read 10″ Check RLU Luciferase/RLU Renilla *1000

JNK2 = JNK2 (Homo sapiens, UniProt P45984); test: JNK2 in vitro assay (SPA, GST-c-Jun phosphorylation); type: biochemical; details: amount necessary to achieve 50% inhibition, GST-c-Jun substrate
Description: as §1, §2

Sequence of JNK3 (P53779 whole entry, species assumed): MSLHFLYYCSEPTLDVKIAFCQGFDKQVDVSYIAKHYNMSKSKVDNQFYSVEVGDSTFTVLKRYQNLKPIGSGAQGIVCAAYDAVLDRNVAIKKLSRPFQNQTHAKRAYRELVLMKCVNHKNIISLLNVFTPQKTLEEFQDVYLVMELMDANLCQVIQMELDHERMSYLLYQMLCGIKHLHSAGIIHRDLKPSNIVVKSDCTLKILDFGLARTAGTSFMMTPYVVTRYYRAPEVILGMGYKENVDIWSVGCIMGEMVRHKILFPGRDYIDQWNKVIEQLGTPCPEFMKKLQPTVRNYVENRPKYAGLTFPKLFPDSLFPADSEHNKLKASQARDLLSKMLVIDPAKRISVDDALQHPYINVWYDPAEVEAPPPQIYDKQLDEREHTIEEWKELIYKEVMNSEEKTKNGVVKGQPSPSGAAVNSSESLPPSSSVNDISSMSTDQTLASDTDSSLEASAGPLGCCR
Sequence of p38 (Q16539 whole entry): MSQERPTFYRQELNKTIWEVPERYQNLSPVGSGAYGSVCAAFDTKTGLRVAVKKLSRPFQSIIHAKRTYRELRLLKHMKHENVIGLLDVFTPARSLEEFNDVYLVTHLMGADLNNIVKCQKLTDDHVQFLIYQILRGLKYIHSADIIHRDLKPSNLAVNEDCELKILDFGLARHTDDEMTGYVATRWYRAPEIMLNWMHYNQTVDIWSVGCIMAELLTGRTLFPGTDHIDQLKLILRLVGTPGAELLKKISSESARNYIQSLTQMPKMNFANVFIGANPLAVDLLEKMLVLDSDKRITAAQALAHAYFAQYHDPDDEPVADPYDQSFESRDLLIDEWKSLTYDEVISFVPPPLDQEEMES
Sequence of JNK2 (P45984 whole entry, species assumed): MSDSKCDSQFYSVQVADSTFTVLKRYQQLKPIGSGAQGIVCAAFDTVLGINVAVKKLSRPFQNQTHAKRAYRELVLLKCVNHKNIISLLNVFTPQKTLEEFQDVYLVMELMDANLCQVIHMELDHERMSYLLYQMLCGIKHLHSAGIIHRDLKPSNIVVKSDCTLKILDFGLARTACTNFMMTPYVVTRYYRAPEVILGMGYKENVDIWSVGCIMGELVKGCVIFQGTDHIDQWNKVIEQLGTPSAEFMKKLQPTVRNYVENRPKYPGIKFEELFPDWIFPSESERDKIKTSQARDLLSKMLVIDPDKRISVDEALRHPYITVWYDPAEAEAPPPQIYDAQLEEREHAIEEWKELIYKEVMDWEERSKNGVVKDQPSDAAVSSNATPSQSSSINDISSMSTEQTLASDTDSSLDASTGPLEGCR
Sequence of ERK2 (P28482 whole entry, species assumed): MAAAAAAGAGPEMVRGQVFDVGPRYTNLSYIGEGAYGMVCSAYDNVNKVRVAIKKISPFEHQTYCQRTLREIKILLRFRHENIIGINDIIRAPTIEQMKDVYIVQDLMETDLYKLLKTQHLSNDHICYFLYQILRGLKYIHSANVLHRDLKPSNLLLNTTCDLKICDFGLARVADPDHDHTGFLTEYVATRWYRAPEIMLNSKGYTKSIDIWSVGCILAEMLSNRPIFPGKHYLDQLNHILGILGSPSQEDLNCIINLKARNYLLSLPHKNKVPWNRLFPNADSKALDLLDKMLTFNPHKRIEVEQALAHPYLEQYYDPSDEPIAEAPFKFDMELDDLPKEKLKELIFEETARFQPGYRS

melting point [°C] | pIC50 (p38) | pIC50 (ERK2) | pIC50 (JNK3) | pIC50 (JNK2) | SMILES | inhibition at 3 µM [1] [%] | inhibition at 10 µM (Hlr c-Jun HeLa cells) [%]
198 to 199 |  |  |  |  | O=C(NCc1ccc(S(=O)(=O)N2CCC(Nc3cccc(S(=O)(=O)C(F)(F)F)c3)CC2)s1)c1ccc(Cl)cc1 [Example 2, 4-Chloro-N-{5-[4-(3-Trifluoromethanesulfonyl-phenylamino)-piperidine-1-sulfonyl]-thiophen-2-ylmethyl}-benzamide] |  | 
169 to 170 | < 4.52 | < 4.52 | 6.96 | 6.51 | CCCc1cccc(NC2CCN(S(=O)(=O)c3ccc(CNC(=O)c4ccc(Cl)cc4)s3)CC2)c1 [Example 110, 4-chloro-N-{[5-({4-[3-propylanilino]piperidin-1-yl}sulfonyl)thien-2-yl]methyl}benzamide] | > 30 | > 30
